Assay results taken from patent US20260001888A1, “PYRAZOLOPYRIMIDINE PDE9 INHIBITORS” (Merck Sharp & Dohme LLC, priority 2018, published 2026).

biological target: Human PDE9 (PDE9A2) (Homo sapiens (Human), UniProt O76083); experiment: PDE9 IMAP fluorescence polarization (FP) inhibition assay; assay type: biochemical; conditions: apparent inhibition constant; human PDE9A2, FAM-cGMP substrate 50 nM, room temperature
Method: The activity of the compounds in accordance with the present invention as PDE9 inhibitors may be readily determined without undue experimentation using a fluorescence polarization (FP) methodology that is well known in the art (Huang, W., et al., J. Biomol Screen, 2002, 7:215).
In a typical experiment the PDE9 inhibitory activity of the compounds of the present invention was determined in accordance with the following experimental method.
Human PDE9 (PDE9A2, GenBank Accession No. NM_001001567), full length with N-terminal GST tag, was purchased from BPS Bioscience. The fluorescence polarization assay for cyclic nucleotide phosphodiesterases was performed using an IMAP® FP kit supplied by Molecular Devices, Sunnyvale, CA (product #R8139). IMAP® technology has been applied previously to phosphodiesterase assays (Huang, W., et al., J. Biomol Screen, 2002, 7:215). Assays were performed at room temperature in 384-well microtiter plates with an incubation volume of 20.2 μL. Solutions of test compounds were prepared in DMSO and serially diluted with DMSO to yield 8 μL of each of 10 solutions differing by 3-fold in concentration, at 32 serial dilutions per plate. 100% inhibition is determined using a known PDE9 inhibitor, such as 1-(2-chlorophenyl)-6-[(2R)-3,3,3-trifluoro-2-methylpropyl]-1,5-dihydro-4H-pyrazolo[3,4-d]pyrimidine-4-one (BAY 73-6691) (Wunder et al, Mol. Pharmacol., 2005, 68 (6): 1775-81), (6-[(3S,4S)-4-methyl-1-(pyrimidin-2-ylmethyl) pyrrolidin-3-yl]-1-(tetrahydro-2H-pyran-4-yl)-1,5-dihydro-4H-pyrazolo[3,4-d]pyrimidin-4-one (PF-04447943) (Wager et al., ACS Chemical Neuroscience, 2010, 1:435-449). 0% of inhibition is determined by using DMSO (1% final concentrations). A Labcyte Echo 555 (Labcyte, Sunnyvale, CA) is used to dispense 200 nL from each well of the titration plate to the 384 well assay plate. Human PDE9A2 membrane preps were diluted to 1 ng/ml. […] PDE9 enzyme mix and compounds were mixed and incubated at room temperature for 30 min. Following which, FAMcGMP substrate was added, shaken and incubated for an additional 60 min at room temperature. The final concentration of human PDE9 membrane preparations were 0.5 ng/ml. The final concentration of FAM-cGMP was 50 nM. After the incubation period, the enzymatic reaction was stopped by addition of binding solution (IMAP-FP, Molecular Devices, comprised of 80% Solution A, 20% Solution B and a 1:600 dilution of binding reagent) to each well. The plates were shaken then incubated at room temperature for 1 h prior to determining the fluorescence polarization (mP) using a Perkin Elmer En Vision™ plate reader (Waltham, MA).
Fluorescence polarization (mP) was calculated from the parallel(S) and perpendicular (P) fluorescence of each sample well and the analogous values for the median control well, containing only substrate (So and Po), using the following equation: […]
Dose-inhibition profiles for each compound were characterized by fitting the mP data to a four-parameter equation given below. The apparent inhibition constant (KI), the maximum inhibition at the low plateau relative to “100% Inhibition Control” (Imax; e.g. 1=>same as this control), the minimum inhibition at the high plateau relative to the “0% Inhibition Control” (Imin, e.g. 0=>same as the no drug control) and the Hill slope (nH) are determined by a non-linear least squares fitting of the mP values as a function of dose of the compound using an in-house software based on the procedures described by Mosser et al., JALA, 2003, 8:54-63, using the following equation: […]
An apparent (Km) for FAM-labeled […] of 150 nM was determined in separate experiments through simultaneous variation of substrate and selected drug concentrations.

Chain of Human PDE9 (PDE9A2) (O76083 other isoform, or with tags, fused parts or gaps): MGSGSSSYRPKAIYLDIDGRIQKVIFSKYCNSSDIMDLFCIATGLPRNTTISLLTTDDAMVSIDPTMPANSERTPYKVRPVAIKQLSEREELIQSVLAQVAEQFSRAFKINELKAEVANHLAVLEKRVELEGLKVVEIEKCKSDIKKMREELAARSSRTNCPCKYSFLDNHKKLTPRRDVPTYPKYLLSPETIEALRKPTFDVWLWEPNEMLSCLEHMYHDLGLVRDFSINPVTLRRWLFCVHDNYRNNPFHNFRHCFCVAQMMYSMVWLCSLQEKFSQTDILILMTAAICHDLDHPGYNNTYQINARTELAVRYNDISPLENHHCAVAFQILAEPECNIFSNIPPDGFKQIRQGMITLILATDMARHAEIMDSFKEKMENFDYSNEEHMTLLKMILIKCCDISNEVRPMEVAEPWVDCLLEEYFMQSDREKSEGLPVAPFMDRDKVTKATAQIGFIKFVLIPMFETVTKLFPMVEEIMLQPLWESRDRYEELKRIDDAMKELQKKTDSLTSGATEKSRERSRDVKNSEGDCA

Compound | Ki [µM]
CC(C)C(c1ncccn1)N(C)c1nc2c(c(C#N)nn2C(C)c2ccc(C(F)(F)F)nc2)c(=O)[nH]1 (single isomer, unassigned) [Example 24, 6-[methyl-(2-methyl-1-pyrimidin-2-yl-propyl)amino]-4-oxo-1-[1-[6-(trifluoromethyl)-3-pyridyl]ethyl]-5H-pyrazolo[3,4-d]pyrimidine-3-carbonitrile] | 0.0693
CC(c1ccc(C(F)(F)F)nc1)n1nc(C#N)c2c(=O)[nH]c(N3CCCC3c3ncccn3)nc21 (single isomer, unassigned) [Example 53, 4-oxo-6-(2-pyrimidin-2-ylpyrrolidin-1-yl)-1-[1-[6-(trifluoromethyl)-3-pyridyl]ethyl]-5H-pyrazolo[3,4-d]pyrimidine-3-carbonitrile] | 0.207
CCC(Nc1nc2c(c(C#N)nn2C(C)c2ccc(C(F)(F)F)nc2)c(=O)[nH]1)c1ncccn1 (single isomer, unassigned) [Example 74, 4-Oxo-6-((1-(pyrimidin-2-yl)propyl)amino)-1-(1-(6-(trifluoromethyl)pyridin-3-yl)ethyl)-4,5-dihydro-1H-pyrazolo[3,4-d]pyrimidine-3-carbonitrile] | 0.0114
CC(c1ccc(C(F)(F)F)nc1)n1nc(C#N)c2c(=O)[nH]c(N3CCC3c3ncccn3)nc21 (single isomer, unassigned) [Example 46, 4-oxo-6-(2-pyrimidin-2-ylazetidin-1-yl)-1-[1-[6-(trifluoromethyl)-3-pyridyl]ethyl]-5H-pyrazolo[3,4-d]pyrimidine-3-carbonitrile] | 0.0214
CC(c1ccc(C(F)(F)F)nc1)n1nc(C#N)c2c(=O)[nH]c(N3CCC3c3ncccn3)nc21 (single isomer, unassigned) [Example 48, 4-oxo-6-(2-pyrimidin-2-ylazetidin-1-yl)-1-[1-[6-(trifluoromethyl)-3-pyridyl]ethyl]-5H-pyrazolo[3,4-d]pyrimidine-3-carbonitrile] | 0.0174
CC(c1ccc(C(F)(F)F)nc1)n1nc(C#N)c2c(=O)[nH]c(N(C)C(c3ncccn3)C3CCC3)nc21 (single isomer, unassigned) [Example 29, 6-[[cyclobutyl(pyrimidin-2-yl)methyl]-methyl-amino]-4-oxo-1-[1-[6-(trifluoromethyl)-3-pyridyl]ethyl]-5H-pyrazolo[3,4-a]pyrimidine-3-carbonitrile] | 0.00896
CCC(c1ncc(F)cn1)N(C)c1nc2c(c(C#N)nn2C(C)C2CCOCC2)c(=O)[nH]1 (single isomer, unassigned) [Example 40, 6-[1-(5-fluoropyrimidin-2-yl)propyl-methyl-amino]-4-oxo-1-(1-tetrahydropyran-4-ylethyl)-5H-pyrazolo[3,4-d]pyrimidine-3-carbonitrile] | 0.0332
CC(c1ccc(C(F)(F)F)nc1)n1nc(C#N)c2c(=O)[nH]c(N3CCC3c3ncccn3)nc21 (single isomer, unassigned) [Example 47, 4-oxo-6-(2-pyrimidin-2-ylazetidin-1-yl)-1-[1-[6-(trifluoromethyl)-3-pyridyl]ethyl]-5H-pyrazolo[3,4-d]pyrimidine-3-carbonitrile] | 0.0227
CC(c1ccc(C(F)(F)F)nc1)n1nc(C#N)c2c(=O)[nH]c(CCc3ncc(C4CC4)cn3)nc21 (single isomer, unassigned) [Example 82, 6-(2-(5-cyclopropylpyrimidin-2-yl)ethyl)-4-oxo-1-(1-(6-(trifluoromethyl)pyridin-3-yl)ethyl)-4,5-dihydro-1H-pyrazolo[3,4-d]pyrimidine-3-carbonitrile] | 0.0162
CC(c1ccc(C(F)(F)F)nc1)n1nc(C#N)c2c(=O)[nH]c(N3CCCC3c3ncccn3)nc21 (single isomer, unassigned) [Example 55, 4-oxo-6-(2-pyrimidin-2-ylpyrrolidin-1-yl)-1-[1-[6-(trifluoromethyl)-3-pyridyl]ethyl]-5H-pyrazolo[3,4-d]pyrimidine-3-carbonitrile] | 0.124
CC(Cc1nc2c(c(C#N)nn2C(C)c2ccc(C(F)(F)F)nc2)c(=O)[nH]1)c1ncccn1 (single isomer, unassigned) [Example 84, 4-oxo-6-(2-(pyrimidin-2-yl)propyl)-1-(1-(6-(trifluoromethyl)pyridin-3-yl)ethyl)-4,5-dihydro-1H-pyrazolo[3,4-d]pyrimidine-3-carbonitrile] | 0.111

These reach a lower Ki. Values come first.

Ki [µM] | Compound
0.00835 | CCC(c1ncc(F)cn1)N(C)c1nc2c(c(C#N)nn2C(C)C2CCOCC2)c(=O)[nH]1 (single isomer, unassigned) [Example 38, 6-[1-(5-fluoropyrimidin-2-yl)propyl-methyl-amino]-4-oxo-1-(1-tetrahydropyran-4-ylethyl)-5H-pyrazolo[3,4-d]pyrimidine-3-carbonitrile]
0.00282 | CCC(c1ncccn1)N(C)c1nc2c(c(C#N)nn2C(C)c2ccc(C(F)(F)F)cc2)c(=O)[nH]1 (single isomer, unassigned) [Example 15, 6-[methyl(1-pyrimidin-2-ylpropyl)amino]-4-oxo-1-[1-[4-(trifluoromethyl)phenyl]ethyl]-5H-pyrazolo[3,4-d]pyrimidine-3-carbonitrile]
0.00073 | CCC(c1ncc(F)cn1)N(C)c1nc2c(c(C#N)nn2C(C)c2ccc(C3CC3)cc2)c(=O)[nH]1 (single isomer, unassigned) [Example 68, 1-[1-(4-cyclopropylphenyl)ethyl]-6-[1-(5-fluoropyrimidin-2-yl)propyl-methyl-amino]-4-oxo-5H-pyrazolo[3,4-d]pyrimidine-3-carbonitrile]
0.00396 | CC(c1ccc(C(F)(F)F)nc1)n1nc(C#N)c2c(=O)[nH]c(CCc3ncccn3)nc21 (single isomer, unassigned) [Example 79, 4-oxo-6-(2-(pyrimidin-2-yl)ethyl)-1-(1-(6-(trifluoromethyl)pyridin-3-yl)ethyl)-4,5-dihydro-1H-pyrazolo[3,4-d]pyrimidine-3-carbonitrile]
0.0078 | CC(c1ccc(C(F)(F)F)nc1)n1nc(C#N)c2c(=O)[nH]c(N3CCC3c3ccc(F)cc3)nc21 (single isomer, unassigned) [Example 58, 6-[2-(4-fluorophenyl)azetidin-1-yl]-4-oxo-1-[1-[6-(trifluoromethyl)-3-pyridyl]ethyl]-5H-pyrazolo[3,4-d]pyrimidine-3-carbonitrile]
0.00025 | CCC(Nc1nc2c(c(C#N)nn2C(C)c2ccc(C(F)(F)F)nc2)c(=O)[nH]1)c1ncccn1 (single isomer, unassigned) [Example 73, 4-Oxo-6-((1-(pyrimidin-2-yl)propyl)amino)-1-(1-(6-(trifluoromethyl)pyridin-3-yl)ethyl)-4,5-dihydro-1H-pyrazolo[3,4-d]pyrimidine-3-carbonitrile]
0.00023 | CC(c1ccc(C(F)(F)F)nc1)n1nc(C#N)c2c(=O)[nH]c(N3CCC3c3ncccn3)nc21 (single isomer, unassigned) [Example 45, 4-oxo-6-(2-pyrimidin-2-ylazetidin-1-yl)-1-[1-[6-(trifluoromethyl)-3-pyridyl]ethyl]-5H-pyrazolo[3,4-d]pyrimidine-3-carbonitrile]
0.00331 | CCC(c1ncc(F)cn1)N(C)c1nc2c(c(C#N)nn2C(C)c2ccc(C(F)(F)F)nc2)c(=O)[nH]1 (single isomer, unassigned) [Example 75, 6-((1-(5-fluoropyrimidin-2-yl)propyl)(methyl)amino)-4-oxo-1-(1-(6-(trifluoromethyl)pyridin-3-yl)ethyl)-4,5-dihydro-1H-pyrazolo[3,4-d]pyrimidine-3-carbonitrile]
